Test results from the supplement of paper PMC10307832.

compound: C(C(=O)C(=O)O)Br [Bromopyruvate] + CCNC(=O)c1noc(-c2cc(C(C)C)c(O)cc2O)c1-c1ccc(CN2CCOCC2)cc1 [Luminespib] (partner 0.01 µM); assay: relative viability (nuclei count vs DMSO), 5 days (fraction); higher = more cells survive; details: first compound 1 µM
Outline: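 Relative viability was taken as the ratio of nuclei in treated wells to nuclei in vehicle wells. Lung cancer cell lines in 1536-well plates received compounds by pin tool one day after seeding, either one drug alone or a fixed anchor-drug dose plus five library-drug doses (not always all listed) in √10 steps. Nuclei were counted on 4× images after 5 days of treatment, and values are medians of duplicate plates.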

| Cell Line | relative viability |
| --- | --- |
| LCLC-97TM1 | 0.727 |
| NCI-H2023 | 0.77 |
| A-427 | 0.763 |
| NCI-H460 | 0.0351 |
| NCI-H727 | 0.277 |
| NCI-H1734 | 0.174 |
| NCI-H520 | 0.223 |
| NCI-H2405 | 0.719 |
| SW 1573 | 0.214 |
| NCI-H1395 | 0.661 |
| 201T | 1.04 |
| NCI-H1915 | 0.673 |
| HCC-827 | 0.684 |
| LXF-289 | 0.744 |
| NCI-H2347 | 0.783 |
| NCI-H650 | 0.887 |
| CAL-12T | 0.375 |

| Cell Line | relative viability |
| --- | --- |
| NCI-H1651 | 0.853 |
| EPLC-272H | 0.28 |
| NCI-H23 | 0.216 |
| NCI-H1355 | 0.721 |
| NCI-H322M | 0.821 |
| NCI-H1437 | 1.16 |
| NCI-H1755 | 0.501 |
| NCI-H2085 | 0.417 |
| HCC-15 | 0.363 |
| NCI-H1793 | 0.207 |
| PC-3 [JPC-3] | 0.797 |
| EKVX | 0.824 |
| LC-2-ad | 1.02 |
| NCI-H1944 | 0.716 |
| NCI-H1975 | 0.227 |
| SK-LU-1 | 0.213 |
| ABC-1 | 0.519 |

same assay, conditions: first compound 3.162 µM

| Cell Line | relative viability |
| --- | --- |
| LCLC-97TM1 | 0.792 |
| NCI-H2023 | 0.883 |
| A-427 | 1.04 |
| NCI-H460 | 0.0317 |
| NCI-H727 | 0.571 |
| NCI-H1734 | 0.225 |
| NCI-H520 | 0.216 |
| NCI-H2405 | 0.643 |
| SW 1573 | 0.212 |
| NCI-H1395 | 0.705 |
| 201T | 1.04 |
| NCI-H1915 | 0.849 |
| HCC-827 | 0.607 |
| LXF-289 | 0.71 |
| NCI-H2347 | 0.522 |
| NCI-H650 | 0.723 |
| CAL-12T | 0.421 |

| Cell Line | relative viability |
| --- | --- |
| NCI-H1651 | 0.848 |
| EPLC-272H | 0.183 |
| NCI-H23 | 0.182 |
| NCI-H1355 | 0.77 |
| NCI-H322M | 0.977 |
| NCI-H1437 | 1.19 |
| NCI-H1755 | 0.516 |
| NCI-H2085 | 0.425 |
| HCC-15 | 0.416 |
| NCI-H1793 | 0.148 |
| PC-3 [JPC-3] | 0.752 |
| EKVX | 0.883 |
| LC-2-ad | 1.11 |
| NCI-H1944 | 0.785 |
| NCI-H1975 | 0.286 |
| SK-LU-1 | 0.195 |
| ABC-1 | 0.823 |

same assay, conditions: first compound 10 µM

| Cell Line | relative viability |
| --- | --- |
| LCLC-97TM1 | 0.864 |
| NCI-H2023 | 0.789 |
| A-427 | 0.918 |
| NCI-H460 | 0.0297 |
| NCI-H727 | 0.218 |
| NCI-H1734 | 0.212 |
| NCI-H520 | 0.228 |
| NCI-H2405 | 0.738 |
| SW 1573 | 0.562 |
| NCI-H1395 | 0.932 |
| 201T | 1.08 |
| NCI-H1915 | 0.925 |
| HCC-827 | 1.01 |
| LXF-289 | 0.779 |
| NCI-H2347 | 0.686 |
| NCI-H650 | 0.791 |
| CAL-12T | 0.606 |

| Cell Line | relative viability |
| --- | --- |
| NCI-H1651 | 0.929 |
| EPLC-272H | 0.249 |
| NCI-H23 | 0.238 |
| NCI-H1355 | 0.649 |
| NCI-H322M | 0.891 |
| NCI-H1437 | 1.16 |
| NCI-H1755 | 0.421 |
| NCI-H2085 | 0.508 |
| HCC-15 | 0.509 |
| NCI-H1793 | 0.145 |
| PC-3 [JPC-3] | 0.766 |
| EKVX | 1.22 |
| LC-2-ad | 1.21 |
| NCI-H1944 | 0.967 |
| NCI-H1975 | 0.084 |
| SK-LU-1 | 0.208 |
| ABC-1 | 0.575 |

same assay, conditions: first compound 31.62 µM

| Cell Line | relative viability |
| --- | --- |
| LCLC-97TM1 | 0.708 |
| NCI-H2023 | 0.65 |
| A-427 | 0.971 |
| NCI-H460 | 0.0334 |
| NCI-H727 | 0.377 |
| NCI-H1734 | 0.175 |
| NCI-H520 | 0.182 |
| NCI-H2405 | 0.741 |
| SW 1573 | 0.135 |
| NCI-H1395 | 0.754 |
| 201T | 1.05 |
| NCI-H1915 | 0.706 |
| HCC-827 | 0.886 |
| LXF-289 | 0.808 |
| NCI-H2347 | 0.401 |
| NCI-H650 | 0.704 |
| CAL-12T | 0.285 |

| Cell Line | relative viability |
| --- | --- |
| NCI-H1651 | 0.811 |
| EPLC-272H | 0.2 |
| NCI-H23 | 0.203 |
| NCI-H1355 | 0.735 |
| NCI-H322M | 0.879 |
| NCI-H1437 | 1.12 |
| NCI-H1755 | 0.466 |
| NCI-H2085 | 0.396 |
| HCC-15 | 0.328 |
| NCI-H1793 | 0.218 |
| PC-3 [JPC-3] | 0.608 |
| EKVX | 0.811 |
| LC-2-ad | 1.04 |
| NCI-H1944 | 0.7 |
| NCI-H1975 | 0.255 |
| SK-LU-1 | 0.194 |
| ABC-1 | 0.499 |

same assay, conditions: first compound 100 µM

| Cell Line | relative viability |
| --- | --- |
| LCLC-97TM1 | 0.709 |
| NCI-H2023 | 0.901 |
| A-427 | 0.817 |
| NCI-H460 | 0.0363 |
| NCI-H727 | 0.592 |
| NCI-H1734 | 0.201 |
| NCI-H520 | 0.242 |
| NCI-H2405 | 0.675 |
| SW 1573 | 0.0625 |
| NCI-H1395 | 0.992 |
| 201T | 1.12 |
| NCI-H1915 | 0.781 |
| HCC-827 | 0.619 |
| LXF-289 | 0.753 |
| NCI-H2347 | 0.702 |
| NCI-H650 | 0.724 |
| CAL-12T | 0.357 |
| NCI-H1651 | 1.01 |
| EPLC-272H | 0.211 |
| NCI-H23 | 0.201 |
| NCI-H1355 | 0.698 |
| NCI-H322M | 0.747 |
| NCI-H1437 | 1.1 |
